Read-outs that look alike come from different tables or passages of the source.
Tests used:
[1] = molecular target: T1, Rat recombinant PDE10A (rPDE10A2) (Rattus norvegicus, UniProt Q9QYJ6); test: In vitro assay PDE10A (SPA, 3H-cAMP); type: biochemical; conditions: pIC50 corresponds to the -log IC50 expressed in mol/L; for IC50: read-out: PDE10A2 pIC50 (converted)
T1 construct: made in house; host or cells: Sf9 insect cells, baculovirus
T1 sequence (Q9QYJ6 1-794): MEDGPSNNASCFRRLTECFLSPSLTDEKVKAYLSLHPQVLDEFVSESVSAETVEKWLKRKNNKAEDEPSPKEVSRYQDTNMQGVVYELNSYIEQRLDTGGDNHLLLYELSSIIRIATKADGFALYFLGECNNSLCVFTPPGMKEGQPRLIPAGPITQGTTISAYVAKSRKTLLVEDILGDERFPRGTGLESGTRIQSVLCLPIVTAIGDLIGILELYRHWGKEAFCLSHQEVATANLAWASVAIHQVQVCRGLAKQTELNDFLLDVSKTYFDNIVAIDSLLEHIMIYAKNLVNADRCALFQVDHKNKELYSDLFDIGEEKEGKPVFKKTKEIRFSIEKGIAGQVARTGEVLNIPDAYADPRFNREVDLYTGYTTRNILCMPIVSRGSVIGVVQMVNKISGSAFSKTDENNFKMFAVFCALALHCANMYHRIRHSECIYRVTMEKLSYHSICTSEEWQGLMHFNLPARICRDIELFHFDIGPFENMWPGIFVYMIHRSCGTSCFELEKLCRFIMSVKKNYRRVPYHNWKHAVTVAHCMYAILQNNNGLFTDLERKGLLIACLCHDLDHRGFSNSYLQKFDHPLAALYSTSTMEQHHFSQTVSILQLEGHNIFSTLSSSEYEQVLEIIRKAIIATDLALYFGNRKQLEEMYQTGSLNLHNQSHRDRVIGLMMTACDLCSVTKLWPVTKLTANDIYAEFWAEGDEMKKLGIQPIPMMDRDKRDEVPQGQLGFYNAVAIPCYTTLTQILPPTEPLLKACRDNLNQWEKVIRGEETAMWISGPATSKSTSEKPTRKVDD
Experimental: Rat recombinant PDE10A (rPDE10A2) was expressed in Sf9 cells using a recombinant rPDE10A baculovirus construct. Cells were harvested after 48 h of infection and the rPDE10A protein was purified by metal chelate chromatography on Ni-sepharose 6FF. Tested compounds were dissolved and diluted in 100% DMSO to a concentration 100 fold of the final concentration in the assay. Compound dilutions (0.4 μl) were added in 384 well plates to 20 μl of incubation buffer (50 mM Tris pH 7.8, 8.3 mM MgCl2, 1.7 mM EGTA). 10 μl of rPDE10A enzyme in incubation buffer was added and the reaction was started by addition of 10 μl substrate to a final concentration of 60 nM cAMP and 0.008 μCi ^3H-cAMP. The reaction was incubated for 60 min. at RT. […] After sedimentation of the beads during 30 min. the radioactivity was measured in a Perkin Elmer Topcount scintillation counter and results were expressed as cpm. For blank values the enzyme was omitted from the reaction and replaced by incubation buffer. Control values were obtained by addition of a final concentration of 1% DMSO instead of compound. The same assay principle is applied for the measurement of the affinity of the compound for other members of the PDE family with appropriate modifications in incubation buffer, substrate concentration, incubation time and stop solution.

[2] = system: apomorphine-induced stereotypy; test: Apomorphine-induced stereotypy in rats (APO); type: in vivo; conditions: Rattus norvegicus
Experimental: Apomorphine-Induced Stereotypy in Rats (APO)
Apomorphine (1.0 mg/kg, i.v.)-induced stereotypy (compulsive sniffing, licking, chewing) was scored every 5 min. over the first hour after injection of apomorphine, following a 1 hour interval pre-treatment with the test compound. The score system was: (3) pronounced, (2) moderate, (1) slight, and (O) absent.

[3] = not active at 2.5 or at 10 mg/kg, not further tested, read-out: APO ED50 (not active at threshold dose)
[4] = po, * compound was not soluble and was tested orally as a suspension, read-out: APO ED50

SMILES	IC50 [1]	ED50 [2, 3]	ED50 ([2]; read-out: APO ED50)	PDE10A2 pIC50 [1]	ED50 [2, 4]
COC(C)(C)COc1ccc(-c2c(C3CC3)nc3c(N4CCOCC4)nccn23)cn1 [compound 105]	174 nM	> 2.5 mg/kg	–	–	–
Cc1nc2c(N3CCOCC3)nccn2c1-c1ccnc(CC(C)C)c1 [compound 27, 3-(2-Isobutyl-pyridin-4-yl)-2-methyl-8-morpholin-4-yl-imidazo[1,2-a]pyrazine]	74.1 nM	> 2.5 mg/kg	–	–	–
Cc1nc2c(N3CCOCC3)nccn2c1-c1ccnc(N2CCCC2)c1 [compound 99]	151 nM	> 2.5 mg/kg	–	–	–
Cc1nc2c(N3CCOCC3)nccn2c1-c1cnn(C2CCOC2)c1 (stereo not drawn) [compound 82]	115 nM	–	3.1 mg/kg	–	–
c1cn2c(-c3ccc(C4CCOCC4)nc3)c(C3CC3)nc2c(N2CCOCC2)n1 [compound 83]	115 nM	> 2.5 mg/kg	–	–	–
Cc1nc2c(N3CCOCC3)nccn2c1-c1ccc(OCC2CC2)nc1 [compound 134]	562 nM	–	≤ 10 mg/kg	–	–
Cc1nc2c(N3CCOCC3)nccn2c1-c1cnn(CC2CCCCO2)c1 (single isomer, unassigned) [compound 58]	67.6 nM	> 2.5 mg/kg	–	–	–
Cc1nc2c(-c3ccncc3)nccn2c1-c1ccc(N2CCOCC2)nc1 [compound 115]	263 nM	–	5 mg/kg	–	–
COC(C)(C)COc1ccc(-c2c(C)nc3c(N4CCOCC4)nccn23)cn1 [compound 3, 3-[6-(2-Methoxy-2-methyl-propoxy)-pyridin-3-yl]-2-methyl-8-morpholin-4-yl-imidazo[1,2-a]pyrazine]	457 nM	–	5 mg/kg	–	–
Cc1nc2c(N3CCOCC3)nccn2c1-c1ccnc(N2CCOCC2)c1 [compound 91]	135 nM	> 2.5 mg/kg	–	–	–
CCOC(C)(C)c1ccc(-c2c(C)nc3c(N4CCOCC4)nccn23)cn1 [compound 55]	57.5 nM	> 2.5 mg/kg	–	–	–
COC[C@H](C)n1cc(-c2c(C)nc3c(-c4ccncc4)nccn23)cn1 [compound 79]	107 nM	–	5 mg/kg	–	–
Cc1nc2c(N3CCOCC3)nccn2c1-c1cnn(CC2CC2)c1 [compound 62]	79.4 nM	> 2.5 mg/kg	–	–	–
Cc1nc2c(N3CCOCC3)nccn2c1-c1cnn(CCN2CCOCC2)c1 [compound 116]	275 nM	> 2.5 mg/kg	–	–	–
Cc1nc2c(N3CCOCC3)nccn2c1-c1cnn(CC2CCCO2)c1 (single isomer, unassigned) [compound 71]	95.5 nM	–	5 mg/kg	–	–
COC(C)CCn1cc(-c2c(C)nc3c(N4CCOCC4)nccn23)cn1 (single isomer, unassigned) [compound 61]	79.4 nM	–	5 mg/kg	–	–
Cc1nc2c(N3CCOCC3)nccn2c1-c1cnn(Cc2ccc(Cl)cc2)c1 [compound 121]	372 nM	> 2.5 mg/kg	–	–	–
Cc1nc2c(N3CCOCC3)nccn2c1-c1cnn(Cc2ccccn2)c1 [compound 76]	102 nM	–	3.1 mg/kg	–	–
COCCc1ncc(-c2c(C)nc3c(N4CCOCC4)nccn23)cc1F [compound 17, 3-[5-Fluoro-6-(2-methoxy-ethyl)-pyridin-3-yl]-2-methyl-8-morpholin-4-yl-imidazo[1,2-a]pyrazine]	275 nM	> 2.5 mg/kg	–	–	–
Cc1nc2c(N3CCOCC3)nccn2c1-c1cnn(Cc2ccc3ccccc3n2)c1 [compound 112]	–	> 2.5 mg/kg	–	6.63	–
c1cn2c(-c3ccc(N4CCNCC4)nc3)c(C3CC3)nc2c(N2CCOCC2)n1 [compound 87]	126 nM	> 2.5 mg/kg	–	–	–
COCCCn1cc(-c2c(C)nc3c(-c4ccncc4)nccn23)cn1 [compound 102]	166 nM	–	5 mg/kg	–	–

SMILES	IC50 [1]	ED50 [2, 3]	ED50 ([2]; read-out: APO ED50)	PDE10A2 pIC50 [1]	ED50 [2, 4]
COC(C)(C)CCc1ccc(-c2c(C)nc3c(N4CCOCC4)nccn23)cn1 [compound 29, 3-[6-(3-Methoxy-3-methyl-butyl)-pyridin-3-yl]-2-methyl-8-morpholin-4-yl-imidazo[1,2-a]pyrazine]	219 nM	–	1.2 mg/kg	–	–
CO[C@@H](C)Cn1cc(-c2c(C)nc3c(-c4ccncc4)nccn23)cn1 [compound 101]	162 nM	–	3.1 mg/kg	–	–
Cc1nc2c(N3CCOCC3)nccn2c1-c1cnn(CC(F)(F)F)c1 [compound 49]	–	–	5 mg/kg	7.33	–
Cc1nc2c(N3CCOCC3)nccn2c1-c1cnn(CC2CCOCC2)c1 [compound 89]	135 nM	–	≤ 10 mg/kg	–	–
COCCCn1cc(-c2c(C)nc3c(N4CCOCC4)nccn23)cn1 [compound 68]	87.1 nM	–	3.1 mg/kg	–	–
Cc1nc2c(-c3ccncc3)nccn2c1-c1cnn(CCO)c1 [compound 138]	724 nM	> 2.5 mg/kg	–	–	–
Cc1nc2c(N3CCOCC3)nccn2c1-c1ccc(OCC(F)(F)F)nc1 [compound 122]	380 nM	> 2.5 mg/kg	–	–	–
Cc1nc2c(N3CCOCC3)nccn2c1-c1cnn(CC(F)F)c1 [compound 56]	57.5 nM	–	–	–	3.1 mg/kg
c1cn2c(-c3ccc(N4CCOCC4)nc3)c(C3CC3)nc2c(N2CCOCC2)n1 [compound 63]	83.2 nM	> 2.5 mg/kg	–	–	–
CCC(COC)n1cc(-c2c(C)nc3c(N4CCOCC4)nccn23)cn1 (stereo not drawn) [compound 111]	219 nM	> 2.5 mg/kg	–	–	–
Cc1nc2c(N3CCOCC3)nccn2c1-c1cnn(C(C)C)c1 [compound 81]	–	> 2.5 mg/kg	–	6.95	–
COCCn1cc(-c2c(C#N)nc3c(N4CCOCC4)nccn23)cn1 [compound 40, 3-[1-(2-Methoxy-ethyl)-1H-pyrazol-4-yl]-8-morpholin-4-yl-imidazo[1,2-a]pyrazine-2-carbonitrile]	–	–	5 mg/kg	7.07	–
Cc1nc2c(N3CCOCC3)nccn2c1-c1cnc(C(C)C)[nH]1 [compound 114]	263 nM	> 2.5 mg/kg	–	–	–
COC[C@@H](C)n1cc(-c2c(C)nc3c(-c4ccncc4)nccn23)cn1 [compound 104]	170 nM	–	5 mg/kg	–	–
COc1nc2c(N3CCOCC3)nccn2c1-c1ccc(CC(C)(C)OC)nc1 [compound 95]	141 nM	> 2.5 mg/kg	–	–	–
COCCc1ccc(-c2c(C)nc3c(N4CCOCC4)nccn23)nc1 [compound 31, 3-[5-(2-Methoxy-ethyl)-pyridin-2-yl]-2-methyl-8-morpholin-4-yl-imidazo[1,2-a]pyrazine]	–	> 2.5 mg/kg	–	–	–
Cc1nc2c(N3CCOCC3)nccn2c1-c1coc(CC(C)C)n1 [compound 41, 3-(2-Isobutyl-oxazol-4-yl)-2-methyl-8-morpholin-4-yl-imidazo[1,2-a]pyrazine]	–	–	5 mg/kg	–	–
COCCOc1ccc(-c2c(C)nc3c(N4CCOCC4)nccn23)cn1 [compound 1, 3-[6-(2-Methoxy-ethoxy)-pyridin-3-yl]-2-methyl-8-morpholin-4-yl-imidazo[1,2-a]pyrazine]	–	–	–	–	0.8 mg/kg
CCc1nc2c(N3CCOCC3)nccn2c1-c1cnn(CCOC)c1 [compound 100]	–	–	5 mg/kg	–	–
Cc1nc2c(N3CCOCC3)nccn2c1-c1ccc(N2CCNCC2)nc1 [compound 23, 2-Methyl-8-morpholin-4-yl-3-(6-piperazin-1-yl-pyridin-3-yl)-imidazo[1,2-a]pyrazine]	–	> 2.5 mg/kg	–	–	–
COCCn1cc(-c2c(C)nc3c(N4CCOCC4)nccn23)cn1 [compound 35, 2-Methyl-3-[1-(2-methoxy-ethyl)-1H-pyrazol-4-yl]-8-morpholin-4-yl-imidazo[1,2-a]pyrazine]	–	–	5 mg/kg	–	–
Cc1nc2c(N3CCOCC3)nccn2c1-c1ccc(CCO)nc1 [compound 18, 2-[5-(2-Methyl-8-morpholin-4-yl-imidazo[1,2-a]pyrazin-3-yl)-pyridin-2-yl]-ethanol]	–	> 2.5 mg/kg	–	–	–
